Results reported in patent US20220251085A1, “CYSTEINE BINDING COMPOSITIONS AND METHODS OF USE THEREOF” (University of Virginia Patent Foundation, priority 2019, published 2022).

Key:
[1] = HPLC assay for profiling solution reactivity and stability of purine fragments (probes) with amino acid mimetics; type: physicochemical; conditions: for reaction with butanethiol: cysteine mimetic
Method: HPLC assay for profiling solution reactivity and stability of purine fragments: The following reagents were prepared and stored on ice prior to use. 0.1 molar (M) solution of caffeine in acetonitrile, 1.0 M solution of amino acid mimetic (butanethiol—cysteine mimetic; n-butylamine—lysine mimetic; p-cresol—tyrosine mimetic; propionamide-asparagine/glutamine mimetic; butyric acid—aspartic/glutamic acid mimetic), tetramethylguanidine (TMG), 1 M acetic acid (HOAc) in acetonitrile (ACN) and 10 mM solution of purine fragment in ACN mixture. 500 μL of fragment solution were transferred to a dram vial on ice. To the mixture, 5.5 μL of TMG and 5.5 μL of respective amino acid mimetic were added and solutions were stirred on ice for 6 h. To monitor reactivity, 50 μL aliquots were removed at indicated time points and quenched with 10 μL of a 1:1 mixture of caffeine and HOAc. Samples were injected (1 μL) and analyzed by reverse-phase HPLC on a Shimadzu 1100 Series spectrometer (Shimadzu Corporation, Kyoto, Japan) with UV detection at 254 nm. Reaction progress was evaluated by monitoring consumption of starting material (purine fragment) normalized to caffeine standard. Chromatographic separation was performed using a Phenomenex Kinetex C18 column (2.6 μm, 50×4.6 mm; Phenomenex, Torrance, Calif., United States of America). Mobile phases A and B were composed of H2O+0.1% HOAc and ACN+0.1% HOAc, respectively. […] All purine fragment peak AUCs used for calculations were normalized to caffeine standard AUCs at respective time points to account for run-to-run variations by HPLC. The amount of purine fragment consumed (% starting material) was plotted as a function of time.
Discussion: An HPLC assay for determining the reactivity of the purine-based probes with mimetics of amino acid residues was performed. […] Reaction progress was monitored by monitoring the disappearance of starting material and appearance of product via HPLC.

[2] = tested on: DM93 cells; assay: Live cell activity of purine probes, gel-based (CuAAC rhodamine-azide, in-gel fluorescence); conditions: for labeling profile in live cells: DM93 cells, 25 μM, 4 hours
Method: Live Cell Activity Method: DM93 cells were grown at 37° C. in 5% CO2 until 90% confluent. Once confluent cells were washed with serum free media and treated with halogenated purine probes at a final concentration of 25 μM (unless stated) for 4 hours (unless stated). Cells were then scraped and washed 3× with cold PBS and lysed in PBS+protease inhibitor. Lysates were spun at 100,000×g for 45 minutes. Halogen probe-modified proteins in soluble fractions were visualized by conjugating rhodamine-azide using copper-catalyzed azide-alkyne cycloaddition (CuAAC; 1 hour, room temperature), subjected to SDS-PAGE, and detected by in-gel fluorescence scanning. SDS-PAGE gels were also stained with Coomassie brilliant blue to determine protein load. All samples were loaded with equivalent amounts of protein. Thus, changes in purine probe labeling is not due to loading of different proteome amounts.

[3] = molecular target: T1, human eEF-Sec (Uniprot ID P57772) (Homo sapiens, UniProt P57772); assay: Purine probe labeling of recombinant eEF-Sec expressed in HEK293T cells, gel-based; type: cell-based; conditions: 50 μM probe, live cells, 0.5 to 2 hours
T1 construct: FLAG; expressed in transfected cells; host or cells: HEK293T
T1 sequence (P57772 1-596): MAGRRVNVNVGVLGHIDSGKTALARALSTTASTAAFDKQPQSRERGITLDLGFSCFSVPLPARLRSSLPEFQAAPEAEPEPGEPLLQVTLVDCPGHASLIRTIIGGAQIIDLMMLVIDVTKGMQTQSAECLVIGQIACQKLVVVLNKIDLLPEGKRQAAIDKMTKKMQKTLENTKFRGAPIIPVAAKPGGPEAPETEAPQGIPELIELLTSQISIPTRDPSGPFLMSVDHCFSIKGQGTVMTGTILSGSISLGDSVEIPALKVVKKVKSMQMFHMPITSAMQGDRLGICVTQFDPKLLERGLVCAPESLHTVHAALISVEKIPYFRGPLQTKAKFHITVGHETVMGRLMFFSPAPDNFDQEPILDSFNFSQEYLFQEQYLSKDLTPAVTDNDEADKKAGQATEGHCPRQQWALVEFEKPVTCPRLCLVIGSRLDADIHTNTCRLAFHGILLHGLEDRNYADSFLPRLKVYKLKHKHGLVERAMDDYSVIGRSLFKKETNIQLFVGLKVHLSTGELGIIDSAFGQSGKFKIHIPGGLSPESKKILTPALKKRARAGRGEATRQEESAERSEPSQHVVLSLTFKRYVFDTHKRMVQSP
Method: Methods: HEK293T cells were grown at 37° C. in 5% CO2 until 40% confluent. Recombinant human eEF-Sec (Uniprot ID P57772) was expressed by transient transfection for 48 hours. […] Lysates were spun at 100,000×g for 45 minutes. […] Purine probe modified proteins were conjugated to rhodamine-azide by CuAAC, subjected to SDS-PAGE analysis, and detected by in-gel fluorescence scanning. Comparison of non-transfected (Mock) and transfected proteomes was used to identify the recombinant eEF-Sec purine probe-labeled band. […] Reduction in fluorescent signals from purine probe labeling was indicative of Pi ligand inhibitory activity. Mut represents eEF-Sec mutant where cysteine residue 442 is mutated to alanine (C442A).
SDS-PAGE gels were transferred to nitrocellulose membrane. Nitrocellulose blots were blocked with 5% BSA. Blots were washed five times with TBS-T. Recombinant protein expression was detected using an anti-FLAG primary antibody (1:1,000) followed by fluorescent secondary antibody (1:10,000) to determine if there was equivalent protein expression across different treatment conditions.

[4] = tested on: DM93 cells lysates (soluble fractions); assay: Lysate activity of purine probes, gel-based (in-gel fluorescence); type: biochemical; conditions: for protein labeling activity in lysates: DM93 soluble fractions, 25 μM, 2 hrs, 37° C.
Method: Lysate Activity Method: DM93 cells were grown at 37° C. in 5% CO2 until 90% confluent. Once confluent, cells were scraped and washed 3× times with cold PBS and lysed in PBS+protease inhibitor. Lysates were spun at 100,000×g for 45 minutes. Soluble fractions were treated with 25 μM of halogenated purine probes (unless stated) for 2 hrs (unless stated) at 37° C. Purine probe modified proteins were conjugated to rhodamine-azide by CuAAC, subjected to SDS-PAGE analysis, and detected by in-gel fluorescence scanning. SDS-PAGE gels were stained with Coomassie brilliant blue to determine protein load.

SMILES	solution-based reactivity with amino acid mimetics ([1]; HPLC, % starting material consumed, on ice 6 h)	reaction kinetics compared to N9 counterparts ([1]; butanethiol, versus Pu-2, Pu-4, Pu-10)	reactivity towards nucleophilic attack, N7 versus N9 tautomer ([1]; compared with Pu-2)	reaction with butanethiol ([1]; on ice 6 h)	labeling profile in live cells [2]	reactivity of N7 versus N9 tautomers ([2]; live DM93 cells)	concentration dependence of labeling ([2]; live cells)	time dependence of labeling ([2]; live cells)	labeling of recombinant eEF-SEC [3]	protein labeling activity in lysates [4]	reactivity of N7 versus N9 tautomers ([4]; lysates)	concentration dependence of labeling ([4]; proteomes)	time dependence of labeling ([4]; proteomes)	reactivity with lysine mimetic ([1]; n-butylamine, on ice 6 h)
C#CCn1cnc2nc(Cl)nc(Cl)c21 [Pu-1, 2,6-Dichloro-7-(prop-2-yn-1-yl)-7H-purine]	modifies cysteine (Cys) and tyrosine (Tyr) amino acid mimetics	accelerated reaction kinetics	more reactive towards nucleophilic attack	react with butanethiol	robust labeling profiles	more reactive	concentration dependent labeling	react in a time dependent manner	labeled in a time dependent manner	highest protein labeling activity	more reactive	concentration dependent labeling of proteomes	time dependence in protein labeling	–
C#CCn1cnc2c(Cl)nc(Cl)nc21 [Pu-2, 2,6-Dichloro-9-(prop-2-yn-1-yl)-9H-purine]	–	–	–	react with butanethiol	robust labeling profiles	–	–	react in a time dependent manner	labeled in a time dependent manner	highest protein labeling activity	–	–	time dependence in protein labeling	mild lysine (Lys) reactivity
